Results reported in US7989482B2, “Indoline anti-cancer agents” (Joyant Pharmaceuticals, Inc., priority 2008, dated 2011).
Like-named read-outs stand apart in the source and are kept apart here.

What was measured:
A2058 cells = assay: Cell viability assay (CELL-TITER-GLO) in A2058 cells; assay type: cell-based; conditions: Homo sapiens, A2058 cells, 48 hour treatment, cell viability, read-out: IC50 (μM) A2058
Method: (§1) Cell viability assays were run using standard protocols known to those of skill in art. Cells were plated in 96 well plates at the density of 3,000-10,000 cells per well. Twenty four hours later, cells were treated with increasing concentration of test compounds (1 nM to 1 μM). After another 48 hour, cell survival was measured using CELL-TITER-GLO® reagent (Promega) following the protocol provided by the manufacture. The IC50 value was determined as the concentration of test compound that kills 50% of the cell population.
(§2) Cell viability data generated according to the protocol described in Example 97 was generated for representative compounds in A2058 and U937 cells.

U937 cells = assay: Cell viability assay (CELL-TITER-GLO) in U937 cells; assay type: cell-based; conditions: Homo sapiens, U937 cells, 48 hour treatment, cell viability, read-out: IC50 (μM) U937
Method: as §1, §2

Compound | IC50 (A2058 cells; A2058, 48 h) | IC50 (U937 cells; U-937, 48 h) | IC50 (A2058 cells) | IC50 (U937 cells; U-937)
CC(C)[C@H](O)C(=O)N[C@H]1Cc2ccc3c(c2)C2(C4=C(c5nc(C(=O)NC6CCCc7ccccc76)co5)N=C(O4)[C@H](C(C)C)NC1=O)c1ccccc1N[C@H]2O3 (some centres unmarked) [Example 64] | 0.184 µM | 0.184 µM | – | –
Cc1noc(-c2nc3oc2C24c5ccccc5N[C@H]2Oc2ccc(cc24)C[C@H](NC(=O)[C@@H](O)C(C)C)C(=O)N[C@H]3C(C)C)n1 (some centres unmarked) [Example 87] | 0.479 µM | 0.164 µM | – | –
CCC(O)(CC)C(=O)N[C@H]1Cc2ccc3c(c2)C2(C4=C(c5nc(CO)co5)N=C(O4)[C@H](C(C)C)NC1=O)c1ccccc1N[C@H]2O3 (some centres unmarked) [Example 74] | – | – | 0.292 µM | 0.11 µM
CCCCNC(=O)c1coc(-c2nc3oc2C24c5ccccc5N[C@H]2Oc2ccc(cc24)C[C@H](NC(=O)[C@@H](O)C(C)C)C(=O)N[C@H]3C(C)C)n1 (some centres unmarked) [Example 62] | 0.243 µM | 0.192 µM | – | –
CC(C)[C@H](O)C(=O)N[C@H]1Cc2ccc3c(c2)C2(C4=C(C(=O)NC(C)(C)C)N=C(O4)[C@H](C(C)C)NC1=O)c1ccccc1N[C@H]2O3 (some centres unmarked) [Example 24] | > 1 µM | > 1 µM | – | –
COC(=O)c1coc(-c2nc3oc2C24c5ccccc5N[C@H]2Oc2ccc(cc24)C[C@H](NC(=O)[C@@H](O)C(C)(C)C)C(=O)N[C@H]3C(C)C)n1 (some centres unmarked) [Example 48] | 0.058 µM | 0.039 µM | – | –
CC(C)[C@H](O)C(=O)N[C@H]1Cc2ccc3c(c2)C2(C4=C(C(=O)NC(c5ccccc5)c5ccccc5)N=C(O4)[C@H](C(C)C)NC1=O)c1ccccc1N[C@H]2O3 (some centres unmarked) [Example 19] | – | – | > 1 µM | > 1 µM
CC(C)[C@H](O)C(=O)N[C@H]1Cc2ccc3c(c2)C2(C4=C(C(=O)NCC(=O)c5c[nH]c6ccccc56)N=C(O4)[C@H](C(C)C)NC1=O)c1ccccc1N[C@H]2O3 (some centres unmarked) [Example 34] | > 1 µM | > 1 µM | – | –
CC(C)[C@H](O)C(=O)N[C@H]1Cc2ccc3c(c2)C2(C4=C(C5=NCCO5)N=C(O4)[C@H](C(C)C)NC1=O)c1ccccc1N[C@H]2O3 (some centres unmarked) [Example 43] | 0.533 µM | 0.697 µM | – | –
COC(=O)c1nc2oc1C13c4cc(ccc4O[C@@H]1Nc1c(-c4ccncc4)cccc13)C[C@H](NC(=O)[C@@H](O)C(C)C)C(=O)N[C@H]2C(C)C (some centres unmarked) [Example 41] | > 1 µM | > 1 µM | – | –
CCC(C)(O)C(=O)N[C@H]1Cc2ccc3c(c2)C2(C4=C(c5nc(C(=O)OC)co5)N=C(O4)[C@H](C(C)C)NC1=O)c1ccccc1N[C@H]2O3 (some centres unmarked) [Example 52] | 0.108 µM | 0.028 µM | – | –
CC(C)[C@H](O)C(=O)N[C@H]1Cc2ccc3c(c2)C2(C4=C(C(=O)NCc5ccccc5)N=C(O4)[C@H](C(C)C)NC1=O)c1ccccc1N[C@H]2O3 (some centres unmarked) [Example 15] | – | – | > 1 µM | > 1 µM
CC(C)[C@H](O)C(=O)N[C@H]1Cc2ccc3c(c2)C2(C4=C(c5ncc[nH]5)N=C(O4)[C@H](C(C)C)NC1=O)c1ccccc1N[C@H]2O3 (some centres unmarked) [Example 85] | 0.337 µM | 0.234 µM | – | –
CNC(=O)c1coc(-c2nc3oc2C24c5ccccc5N[C@H]2Oc2ccc(cc24)C[C@H](NC(=O)[C@@H](O)C(C)C)C(=O)N[C@H]3C(C)C)n1 (some centres unmarked) [Example 58] | > 1 µM | > 1 µM | – | –
[H][C@@]1(C(=O)N[C@H]2Cc3ccc4c(c3)C3(C5=C(c6nc(C(=O)OC)co6)N=C(O5)[C@H](C(C)C)NC2=O)c2ccccc2N[C@H]3O4)CCCO1 (some centres unmarked) [Example 50] | 0.075 µM | 0.04 µM | – | –
CC(C)[C@H](O)C(=O)N[C@H]1Cc2ccc3c(c2)C2(C4=C(C(=O)NCc5ccc(F)cc5)N=C(O4)[C@H](C(C)C)NC1=O)c1ccccc1N[C@H]2O3 (some centres unmarked) [Example 20] | > 1 µM | > 1 µM | – | –
COCc1coc(-c2nc3oc2C24c5ccccc5N[C@H]2Oc2ccc(cc24)C[C@H](NC(=O)[C@@H](O)C(C)C)C(=O)N[C@H]3C(C)C)n1 (some centres unmarked) [Example 76] | 0.114 µM | 0.127 µM | – | –
CC(C)[C@H](O)C(=O)N[C@H]1Cc2ccc3c(c2)[C@]2(C4=C(C(=O)O)N=C(O4)[C@H](C(C)C)NC1=O)c1ccccc1NC2O3 (some centres unmarked) [Example 12] | – | – | > 1 µM | > 1 µM
CC(C)[C@H](O)C(=O)N[C@H]1Cc2ccc3c(c2)C2(C4=C(C(=O)NCC(=O)c5c[nH]c6c(O)cccc56)N=C(O4)[C@H](C(C)C)NC1=O)c1cccc(Br)c1N[C@H]2O3 (some centres unmarked) [Example 33] | > 1 µM | > 1 µM | – | –

Compound | IC50 (A2058 cells; A2058, 48 h) | IC50 (U937 cells; U-937, 48 h) | IC50 (A2058 cells) | IC50 (U937 cells; U-937)
COC(=O)c1nc2oc1C13c4cc(ccc4O[C@@H]1Nc1c(-c4c(C)cccc4C)cccc13)C[C@H](NC(=O)[C@@H](O)C(C)C)C(=O)N[C@H]2C(C)C (some centres unmarked) [Example 40] | > 1 µM | > 1 µM | – | –
COC(=O)c1nc2oc1[C@@]13c4ccccc4NC1Oc1ccc(cc13)C[C@H](NC(=O)[C@@H](O)C(C)C)C(=O)N[C@H]2C(C)C (some centres unmarked) [Example 6] | > 1 µM | > 1 µM | – | –
COC(=O)c1nc(-c2nc3oc2C24c5ccccc5N[C@H]2Oc2ccc(cc24)C[C@H](NC(=O)[C@@H](O)CC(C)C)C(=O)N[C@H]3C(C)C)oc1C (some centres unmarked) [Example 70] | 0.08 µM | 0.065 µM | – | –
CCOC(=O)c1coc(-c2nc3oc2C24c5ccccc5N[C@H]2Oc2ccc(cc24)C[C@H](NC(=O)[C@@H](O)C(C)C)C(=O)N[C@H]3C(C)C)n1 (some centres unmarked) [Example 80] | 0.021 µM | 0.0013 µM | – | –
COC(=O)[C@H]1COC(c2nc3oc2C24c5ccccc5N[C@H]2Oc2ccc(cc24)C[C@H](NC(=O)[C@@H](O)C(C)C)C(=O)N[C@H]3C(C)C)=N1 (some centres unmarked) [Example 45] | 0.329 µM | 0.185 µM | – | –
CC(C)[C@H](O)C(=O)N[C@H]1Cc2ccc3c(c2)C2(C4=C(C(=O)NC5CCCCC5)N=C(O4)[C@H](C(C)C)NC1=O)c1ccccc1N[C@H]2O3 (some centres unmarked) [Example 22] | > 1 µM | > 1 µM | – | –
CC(C)[C@H](O)C(=O)N[C@H]1Cc2ccc3c(c2)C2(C4=C(C(=O)NCC5CCCCC5)N=C(O4)[C@H](C(C)C)NC1=O)c1ccccc1N[C@H]2O3 (some centres unmarked) [Example 16] | > 1 µM | > 1 µM | – | –
COc1ccc(-c2cnc(-c3nc4oc3C35c6ccccc6N[C@H]3Oc3ccc(cc35)CC(NC(=O)[C@@H](O)C(C)C)C(=O)N[C@H]4C(C)C)o2)cc1 (some centres unmarked) [Example 71] | 0.639 µM | > 1 µM | – | –
CC(C)[C@H](O)C(=O)N[C@H]1Cc2ccc3c(c2)C2(C4=C(c5nc(C(N)=O)co5)N=C(O4)[C@H](C(C)C)NC1=O)c1ccccc1N[C@H]2O3 (some centres unmarked) [Example 66] | 0.363 µM | 0.218 µM | – | –
CCC(O)c1coc(-c2nc3oc2C24c5ccccc5N[C@H]2Oc2ccc(cc24)C[C@H](NC(=O)[C@@H](O)C(C)C)C(=O)N[C@H]3C(C)C)n1 (some centres unmarked) [Example 75] | 0.226 µM | 0.229 µM | – | –
CC(C)[C@H](O)C(=O)N[C@H]1Cc2ccc3c(c2)C2(C4=C(c5ncco5)N=C(O4)[C@H](C(C)C)NC1=O)c1ccccc1N[C@H]2O3 (some centres unmarked) [Example 78] | 0.154 µM | 0.052 µM | – | –
COC(=O)[C@@H]1CCCN1C(=O)c1nc2oc1C13c4ccccc4N[C@H]1Oc1ccc(cc13)C[C@H](NC(=O)[C@@H](O)C(C)C)C(=O)N[C@H]2C(C)C (some centres unmarked) [Example 13] | > 1 µM | > 1 µM | – | –
CCCCCCc1cccc2c1N[C@H]1Oc3ccc4cc3C21c1oc(nc1-c1nc(C(=O)OC)co1)[C@H](C(C)C)NC(=O)[C@@H](NC(=O)[C@@H](O)C(C)C)C4 (some centres unmarked) [Example 54] | 0.164 µM | 0.063 µM | – | –
COC(=O)c1nc2oc1C13c4ccccc4N[C@H]1Oc1ccc(cc13)C[C@H](NC(=O)[C@@H]1C[C@@H](O)CN1)C(=O)NC2C(C)C (some centres unmarked) [Example 36] | – | – | > 1 µM | > 1 µM
COC(=O)c1nc2oc1[C@@]13c4cc(Cl)ccc4NC1Oc1ccc(cc13)C[C@H](NC(=O)[C@@H](O)C(C)C)C(=O)N[C@H]2C(C)C (some centres unmarked) [Example 93] | > 1 µM | > 1 µM | – | –
CC(C)[C@H](O)C(=O)N[C@H]1Cc2ccc3c(c2)C2(C4=C(c5nc(C(=O)NC(C)(C)C)co5)N=C(O4)[C@H](C(C)C)NC1=O)c1ccccc1N[C@H]2O3 (some centres unmarked) [Example 59] | 0.514 µM | 0.604 µM | – | –
CC(C)[C@H](O)C(=O)N[C@H]1Cc2ccc3c(c2)C2(C4=C(c5cnco5)N=C(O4)[C@H](C(C)C)NC1=O)c1ccccc1N[C@H]2O3 (some centres unmarked) [Example 83] | 0.433 µM | 0.252 µM | – | –
CC(C)[C@H](O)C(=O)N[C@H]1Cc2ccc3c(c2)C2(C4=C(c5nc(C#N)c(N)o5)N=C(O4)[C@H](C(C)C)NC1=O)c1ccccc1N[C@H]2O3 (some centres unmarked) [Example 86] | 0.179 µM | 0.064 µM | – | –
